Measured values: PubChem BioAssay AID1963835 (Molecular Pharmacology Branch, DTP, NCI, 2024)

Tested on: 699152-130-R-J1-PDC complex spheroid viability
Experiment: Anticancer human tumor 699152-130-R-J1-PDC patient-derived pancreatic carcinoma cell line growth inhibition [POLQ]
Conditions: for IC50: curve of first compound; for viability, T/C: stronger effect = lower value
Outline: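 PDC + HUVEC + MSC complex spheroids; POLQ inhibitors ± partner drugs; top conc. at/near clinical Cmax, else 10 microM (SN-38 1 microM), half-log dilutions; 37 degrees C, 5% CO2.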

[1] = second compound 0.0316 µM, first compound 0.0316 µM
[2] = second compound 0.0316 µM, first compound 0.1 µM
[3] = second compound 0.0316 µM, first compound 0.316 µM
[4] = second compound 0.0316 µM, first compound 1 µM
[5] = second compound 0.1 µM, first compound 0.0316 µM
[6] = second compound 0.1 µM, first compound 0.1 µM
[7] = second compound 0.1 µM, first compound 0.316 µM
[8] = second compound 0.1 µM, first compound 1 µM
[9] = second compound 0.316 µM, first compound 0.0316 µM
[10] = second compound 0.316 µM, first compound 0.1 µM
[11] = second compound 0.316 µM, first compound 0.316 µM
[12] = second compound 0.316 µM, first compound 1 µM
[13] = second compound 1 µM, first compound 0.0316 µM
[14] = second compound 1 µM, first compound 0.1 µM
[15] = second compound 1 µM, first compound 0.316 µM
[16] = second compound 1 µM, first compound 1 µM
[17] = second compound 3.16 µM, first compound 0.0316 µM
[18] = second compound 3.16 µM, first compound 0.1 µM
[19] = second compound 3.16 µM, first compound 0.316 µM
[20] = second compound 3.16 µM, first compound 1 µM
[21] = second compound 10 µM, first compound 0.0316 µM
[22] = second compound 10 µM, first compound 0.1 µM
[23] = second compound 10 µM, first compound 0.316 µM
[24] = second compound 10 µM, first compound 1 µM
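Also: spheroids exposed to agents for 7 days before viability reading.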
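For viability, T/C in this document: percent of DMSO vehicle control viability so 100% = vehicle and 0% = no viable signal.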

Compound: CCc1c2c(nc3ccc(O)cc13)-c1cc3c(c(=O)n1C2)COC(=O)[C@]3(O)CC + COC1C(OC(N)=O)C(O)C(Oc2ccc3c(O)c(NC(=O)c4ccc(O)c(CC=C(C)C)c4)c(=O)oc3c2C)OC1(C)C
- IC50 (second compound 0.0316 µM): 0.0226 µM
- IC50 (second compound 0.1 µM): 0.0213 µM
- IC50 (second compound 0.316 µM): 0.025 µM
- IC50 (second compound 1 µM): 0.0405 µM
- IC50 (second compound 3.16 µM): 0.0256 µM
- IC50 (second compound 10 µM): 0.0249 µM
- viability, T/C (second compound 0.0316 µM, first compound 0.00316 µM): 73.5%
- viability, T/C (second compound 0.0316 µM, first compound 0.01 µM): 51.3%
- viability, T/C [1]: 43.5%
- viability, T/C [2]: 41.9%
- viability, T/C [3]: 24.4%
- viability, T/C [4]: 9.02%
- viability, T/C (second compound 0.1 µM, first compound 0.00316 µM): 79.7%
- viability, T/C (second compound 0.1 µM, first compound 0.01 µM): 49.5%
- viability, T/C [5]: 45.1%
- viability, T/C [6]: 37.3%
- viability, T/C [7]: 26.5%
- viability, T/C [8]: 10.1%
- viability, T/C (second compound 0.316 µM, first compound 0.00316 µM): 79%
- viability, T/C (second compound 0.316 µM, first compound 0.01 µM): 46.1%
- viability, T/C [9]: 47.6%
- viability, T/C [10]: 43.4%
- viability, T/C [11]: 22%
- viability, T/C [12]: 12.9%
- viability, T/C (second compound 1 µM, first compound 0.00316 µM): 66.9%
- viability, T/C (second compound 1 µM, first compound 0.01 µM): 57%
- viability, T/C [13]: 51.8%
- viability, T/C [14]: 45%
- viability, T/C [15]: 23.1%
- viability, T/C [16]: 7.35%
- viability, T/C (second compound 3.16 µM, first compound 0.00316 µM): 66.7%
- viability, T/C (second compound 3.16 µM, first compound 0.01 µM): 51.6%
- viability, T/C [17]: 46.9%
- viability, T/C [18]: 40.4%
- viability, T/C [19]: 28.5%
- viability, T/C [20]: 7.68%
- viability, T/C (second compound 10 µM, first compound 0.00316 µM): 70.5%
- viability, T/C (second compound 10 µM, first compound 0.01 µM): 55.7%
- viability, T/C [21]: 43.6%
- viability, T/C [22]: 39.6%
- viability, T/C [23]: 28%
- viability, T/C [24]: 7.11%

Compound: COc1cc2cc(C(=O)CCC(=O)O)sc2cc1OC + Nc1ccc(C#CCN(C(=O)Cc2ncc(C(F)(F)F)cc2C(F)(F)F)c2ccc(F)cc2)nn1
- IC50 (second compound 0.0316 µM): > 10 µM
- IC50 (second compound 0.1 µM): > 10 µM
- IC50 (second compound 0.316 µM): > 10 µM
- IC50 (second compound 1 µM): > 10 µM
- IC50 (second compound 3.16 µM): > 10 µM
- IC50 (second compound 10 µM): > 10 µM
- viability, T/C [1]: 88.3%
- viability, T/C [2]: 94%
- viability, T/C [3]: 90.2%
- viability, T/C [4]: 98.3%
- viability, T/C (second compound 0.0316 µM, first compound 3.16 µM): 102%
- viability, T/C (second compound 0.0316 µM, first compound 10 µM): 88.9%
- viability, T/C [5]: 99%
- viability, T/C [6]: 93.8%
- viability, T/C [7]: 95.5%
- viability, T/C [8]: 110%
- viability, T/C (second compound 0.1 µM, first compound 3.16 µM): 107%
- viability, T/C (second compound 0.1 µM, first compound 10 µM): 106%
- viability, T/C [9]: 104%
- viability, T/C [10]: 97.3%
- viability, T/C [11]: 90.3%
- viability, T/C [12]: 105%
- viability, T/C (second compound 0.316 µM, first compound 3.16 µM): 105%
- viability, T/C (second compound 0.316 µM, first compound 10 µM): 104%
- viability, T/C [13]: 102%
- viability, T/C [14]: 94.2%
- viability, T/C [15]: 133%
- viability, T/C [16]: 96.9%
- viability, T/C (second compound 1 µM, first compound 3.16 µM): 110%
- viability, T/C (second compound 1 µM, first compound 10 µM): 97.8%
- viability, T/C [17]: 119%
- viability, T/C [18]: 122%
- viability, T/C [19]: 104%
- viability, T/C [20]: 102%
- viability, T/C (second compound 3.16 µM, first compound 3.16 µM): 91.8%
- viability, T/C (second compound 3.16 µM, first compound 10 µM): 102%
- viability, T/C [21]: 114%
- viability, T/C [22]: 124%
- viability, T/C [23]: 121%
- viability, T/C [24]: 111%
- viability, T/C (second compound 10 µM, first compound 3.16 µM): 112%
- viability, T/C (second compound 10 µM, first compound 10 µM): 109%

Compound: CC(=O)O[C@H]1C(=O)[C@@]2(C)[C@H]([C@H](OC(=O)c3ccccc3)[C@]3(O)C[C@H](OC(=O)[C@H](O)[C@@H](NC(=O)c4ccccc4)c4ccccc4)C(C)=C1C3(C)C)[C@]1(OC(C)=O)CO[C@@H]1C[C@@H]2O + Nc1ccc(C#CCN(C(=O)Cc2ncc(C(F)(F)F)cc2C(F)(F)F)c2ccc(F)cc2)nn1
- IC50 (second compound 0.0316 µM): > 3 µM
- IC50 (second compound 0.1 µM): > 3 µM
- IC50 (second compound 0.316 µM): > 3 µM
- IC50 (second compound 1 µM): > 3 µM
- IC50 (second compound 3.16 µM): > 3 µM
- IC50 (second compound 10 µM): > 3 µM
- viability, T/C (second compound 0.0316 µM, first compound 0.00949 µM): 82%
- viability, T/C (second compound 0.0316 µM, first compound 0.03 µM): 66.1%
- viability, T/C (second compound 0.0316 µM, first compound 0.0949 µM): 62.1%
- viability, T/C (second compound 0.0316 µM, first compound 0.3 µM): 67.1%
- viability, T/C (second compound 0.0316 µM, first compound 0.949 µM): 72.8%
- viability, T/C (second compound 0.0316 µM, first compound 3 µM): 75.6%
- viability, T/C (second compound 0.1 µM, first compound 0.00949 µM): 79.8%
- viability, T/C (second compound 0.1 µM, first compound 0.03 µM): 69%
- viability, T/C (second compound 0.1 µM, first compound 0.0949 µM): 61.4%
- viability, T/C (second compound 0.1 µM, first compound 0.3 µM): 63.2%
- viability, T/C (second compound 0.1 µM, first compound 0.949 µM): 68.8%
- viability, T/C (second compound 0.1 µM, first compound 3 µM): 70.5%
- viability, T/C (second compound 0.316 µM, first compound 0.00949 µM): 85.3%
- viability, T/C (second compound 0.316 µM, first compound 0.03 µM): 69.2%
- viability, T/C (second compound 0.316 µM, first compound 0.0949 µM): 65.5%
- viability, T/C (second compound 0.316 µM, first compound 0.3 µM): 68%
- viability, T/C (second compound 0.316 µM, first compound 0.949 µM): 64.8%
- viability, T/C (second compound 0.316 µM, first compound 3 µM): 72.8%
- viability, T/C (second compound 1 µM, first compound 0.00949 µM): 83%
- viability, T/C (second compound 1 µM, first compound 0.03 µM): 72.2%
- viability, T/C (second compound 1 µM, first compound 0.0949 µM): 65.5%
- viability, T/C (second compound 1 µM, first compound 0.3 µM): 65.4%
- viability, T/C (second compound 1 µM, first compound 0.949 µM): 71.6%
- viability, T/C (second compound 1 µM, first compound 3 µM): 67.7%
- viability, T/C (second compound 3.16 µM, first compound 0.00949 µM): 80.9%
- viability, T/C (second compound 3.16 µM, first compound 0.03 µM): 68%
- viability, T/C (second compound 3.16 µM, first compound 0.0949 µM): 65.4%
- viability, T/C (second compound 3.16 µM, first compound 0.3 µM): 69.9%
- viability, T/C (second compound 3.16 µM, first compound 0.949 µM): 84.2%
- viability, T/C (second compound 3.16 µM, first compound 3 µM): 76.9%
- viability, T/C (second compound 10 µM, first compound 0.00949 µM): 97%
- viability, T/C (second compound 10 µM, first compound 0.03 µM): 70.5%
- viability, T/C (second compound 10 µM, first compound 0.0949 µM): 72.3%
- viability, T/C (second compound 10 µM, first compound 0.3 µM): 71.9%
- viability, T/C (second compound 10 µM, first compound 0.949 µM): 86.7%
- viability, T/C (second compound 10 µM, first compound 3 µM): 78.5%
